Assay results reported in the supplement of paper PMC10307832.

What was measured:
Assay in all cases: relative viability (nuclei count vs DMSO), 5 days (fraction); higher = more cells survive
[1] = compound: C1COCCN1CC2=CC(=O)C(=CO2)OCCCCCSC3=C4C=CC(=CC4=NC=C3)C(F)(F)F [EHT 1864] + Cc1nc(NC(=O)N2CCC[C@H]2C(N)=O)sc1-c1ccnc(C(C)(C)C(F)(F)F)c1 [Alpelisib] (partner 2 µM)
Outline: (§1)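 Relative viability equals treated-well nuclei counts divided by vehicle-well nuclei counts. Counts came from 4× images of lung cancer cell lines grown in 1536-well plates for 5 days after pin-tool dosing on the day after seeding. Dosing used one drug alone or a fixed anchor-drug dose plus five library-drug doses (not always all listed) in √10 steps, and values are medians of duplicate plates.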

[2] = compound: C1COCCN1CC2=CC(=O)C(=CO2)OCCCCCSC3=C4C=CC(=CC4=NC=C3)C(F)(F)F [EHT 1864] + Nc1ncn([C@H]2C[C@H](O)[C@@H](CO)O2)c(=O)n1 [Decitabine] (partner 2 µM)
Outline: as §1

[3] = compound: C1COCCN1CC2=CC(=O)C(=CO2)OCCCCCSC3=C4C=CC(=CC4=NC=C3)C(F)(F)F [EHT 1864] + C[C@]1(O)C[C@@H](c2nc(-c3ccc4ccc(-c5ccccc5)nc4c3)c3c(N)nccn32)C1 [Linsitinib] (partner 1 µM)
Outline: as §1

[4] = compound: C1COCCN1CC2=CC(=O)C(=CO2)OCCCCCSC3=C4C=CC(=CC4=NC=C3)C(F)(F)F [EHT 1864] + CS(=O)(=O)N1CCN(Cc2cc3nc(-c4cccc5[nH]ncc45)nc(N4CCOCC4)c3s2)CC1 [Pictilisib] (partner 1 µM)
Outline: as §1

| Cell Line | relative viability ([1]; first compound 0.04 µM) | relative viability ([1]; first compound 0.1265 µM) | relative viability ([1]; first compound 0.4 µM) | relative viability ([1]; first compound 1.265 µM) | relative viability ([1]; first compound 4 µM) | relative viability ([2]; first compound 0.04 µM) | relative viability ([2]; first compound 0.1265 µM) | relative viability ([2]; first compound 0.4 µM) | relative viability ([2]; first compound 1.265 µM) | relative viability ([2]; first compound 4 µM) | relative viability ([3]; first compound 0.04 µM) | relative viability ([3]; first compound 0.1265 µM) | relative viability ([3]; first compound 0.4 µM) | relative viability ([3]; first compound 1.265 µM) | relative viability ([3]; first compound 4 µM) | relative viability ([4]; first compound 0.04 µM) | relative viability ([4]; first compound 0.1265 µM) | relative viability ([4]; first compound 0.4 µM) | relative viability ([4]; first compound 1.265 µM) | relative viability ([4]; first compound 4 µM) |
| --- | --- | --- | --- | --- | --- | --- | --- | --- | --- | --- | --- | --- | --- | --- | --- | --- | --- | --- | --- | --- |
| NCI-H1355 | 0.766 | 0.624 | 0.699 | 0.856 | 0.89 | 0.391 | 0.326 | 0.355 | 0.369 | 0.328 | 0.781 | 0.667 | 0.718 | 0.72 | 0.77 | 0.423 | 0.385 | 0.412 | 0.445 | 0.475 |
| SW 1573 | 0.772 | 0.896 | 0.737 | 0.608 | 0.719 | 0.655 | 0.478 | 0.463 | 0.55 | 0.339 | 0.923 | 0.943 | 0.812 | 0.814 | 0.709 | 0.525 | 0.364 | 0.462 | 0.521 | 0.511 |
| A549 | 0.637 | 0.735 | 0.694 | 0.805 | 0.712 | 0.263 | 0.213 | 0.257 | 0.284 | 0.323 | 0.598 | 0.658 | 0.641 | 0.599 | 0.639 | – | 0.524 | 0.416 | 0.411 | 0.461 |
| NCI-H2347 | 1.02 | 0.868 | 0.989 | 1.03 | 1.2 | 0.571 | 0.488 | 0.675 | 0.64 | 0.559 | 0.92 | 0.741 | 0.95 | 0.941 | 0.999 | 0.596 | – | 0.582 | 0.639 | 0.583 |
| LCLC-97TM1 | 0.253 | – | 0.22 | 0.195 | 0.198 | 0.271 | 0.237 | 0.22 | 0.235 | 0.271 | 0.202 | – | 0.148 | 0.168 | 0.233 | 0.222 | – | 0.161 | 0.224 | 0.227 |
| EMC-BAC-2 | 0.694 | 0.682 | 0.718 | 0.705 | 0.768 | 0.857 | 0.935 | 1 | 1.04 | 0.997 | 0.803 | 0.757 | 0.792 | 0.815 | 0.784 | 0.525 | 0.551 | 0.548 | 0.517 | 0.517 |
| NCI-H1975 | 0.628 | 0.614 | 0.6 | 0.618 | 0.572 | 0.41 | 0.411 | 0.404 | 0.384 | 0.398 | 0.956 | 0.967 | 0.955 | 0.811 | 0.835 | 0.304 | 0.305 | 0.278 | 0.269 | 0.301 |
| BEN | 0.941 | 0.825 | 0.92 | 0.938 | 1.1 | 0.775 | 0.727 | 0.767 | 0.764 | 0.702 | 0.862 | 0.801 | 0.879 | 0.851 | 0.985 | 0.523 | 0.532 | 0.589 | 0.576 | 0.61 |
| NCI-H23 | 0.664 | – | 0.781 | 0.738 | 0.807 | 0.297 | 0.29 | 0.314 | 0.343 | 0.393 | 0.522 | – | 0.443 | 0.59 | 0.551 | 0.476 | – | 0.432 | 0.593 | 0.55 |
| NCI-H520 | 0.967 | 0.954 | 0.883 | 0.889 | 0.876 | 0.545 | 0.496 | 0.535 | 0.493 | 0.445 | 0.917 | 0.998 | 0.747 | 0.813 | 0.913 | 0.346 | 0.27 | 0.308 | 0.324 | 0.336 |
| EPLC-272H | 1.08 | 0.933 | 0.977 | 1.07 | 0.999 | 0.406 | 0.359 | 0.405 | 0.355 | 0.396 | 1.4 | 1.16 | 1.04 | 1.32 | 1.25 | 0.307 | 0.275 | 0.446 | 0.166 | 0.278 |
| LCLC-103H | 1.05 | 0.888 | 0.956 | 1.03 | 1.07 | 0.734 | 0.67 | 0.744 | 0.708 | 0.66 | 1.12 | 0.83 | 1.01 | 1.09 | 1.39 | 0.656 | 0.482 | 0.667 | 0.661 | 0.547 |
| NCI-H2405 | 0.789 | 0.767 | 0.877 | – | 0.719 | 0.832 | 0.717 | 0.785 | 0.736 | 0.772 | 0.922 | 0.933 | 1.06 | – | 0.851 | 0.447 | 0.398 | 0.456 | – | 0.439 |
| HCC-15 | 0.902 | 0.797 | 0.903 | 0.823 | 0.842 | 0.735 | – | 0.62 | 0.624 | 0.624 | 0.877 | 0.827 | 0.888 | 0.86 | 0.922 | 0.737 | 0.577 | 0.793 | 0.656 | 0.731 |
| PC-3 [JPC-3] | 1.04 | 0.944 | 1.01 | 0.957 | 0.987 | 0.801 | 0.745 | 0.877 | 0.954 | 0.844 | 0.982 | 0.938 | 0.942 | 0.949 | 0.952 | 0.816 | 0.577 | 0.853 | 0.928 | 0.657 |
| HARA | 0.762 | 0.758 | 0.843 | 0.814 | 0.857 | 0.532 | – | 0.563 | 0.564 | 0.425 | 0.963 | 0.928 | 1.08 | 0.983 | 1.01 | 0.393 | 0.359 | 0.531 | 0.321 | 0.446 |
